Measurements taken from publication PMC12280126, “Potent β-lactam-based tyrosyl-DNA phosphodiesterase 1 inhibitors identified by a virtual screen” (Scientific Reports, 2025).
“And” between values parts separate entries of the source, which are not always exact repeats. Identical values can stand only once. Counter-ions that a name gives are not always drawn.

Target: T1, recombinant TDP1 (Homo sapiens, UniProt Q9NUW8)
T1 construct: incubated with 40 pM full-length recombinant TDP1 or TDP1 (148–608)
T1 sequence (Q9NUW8 whole entry): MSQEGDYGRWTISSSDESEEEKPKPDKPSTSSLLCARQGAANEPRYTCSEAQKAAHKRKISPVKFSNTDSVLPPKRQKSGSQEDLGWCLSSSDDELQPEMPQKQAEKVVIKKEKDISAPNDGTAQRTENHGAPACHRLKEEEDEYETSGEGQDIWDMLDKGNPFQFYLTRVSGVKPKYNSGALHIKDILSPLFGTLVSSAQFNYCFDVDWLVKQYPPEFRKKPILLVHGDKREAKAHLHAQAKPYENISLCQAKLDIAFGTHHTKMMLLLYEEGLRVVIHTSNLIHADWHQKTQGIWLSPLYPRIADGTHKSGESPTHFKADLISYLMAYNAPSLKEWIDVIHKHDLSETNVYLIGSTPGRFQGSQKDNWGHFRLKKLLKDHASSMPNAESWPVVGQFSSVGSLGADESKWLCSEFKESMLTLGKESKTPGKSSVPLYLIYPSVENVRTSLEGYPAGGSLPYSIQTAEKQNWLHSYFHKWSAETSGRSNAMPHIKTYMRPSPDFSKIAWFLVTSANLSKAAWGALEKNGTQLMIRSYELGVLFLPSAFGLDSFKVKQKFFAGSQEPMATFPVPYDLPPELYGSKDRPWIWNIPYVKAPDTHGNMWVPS
Assay: in vitro gel-based fluorescence TDP1 catalytic assay
Format: biochemical
Details: 40 pM recombinant TDP1, 1 nM N14Y DNA substrate, 15 min, room temperature; read-out: TDP1 IC50
Procedure: We subjected select virtual screen hits to evaluation of TDP1 inhibitory potencies using in vitro gel-based fluorescence TDP1 catalytic assays (Fig. 2). […] To further explore this class of compounds, we purchased from TargetMol a library of approximately 90 β-lactams as 10 mM solutions in DMSO. […] We examined TDP1 inhibitory potencies of the compounds using the in vitro gel-based fluorescence assays as previously described[21]–[24]. Briefly, a 5’-Cy5-labeled DNA substrate (N14Y, 5’-Cy5-[…]-pY-3’, 1 nM) was incubated in TDP1 reaction buffer with recombinant TDP1 or truncated TDP1(148–608) (40 pM) in the absence or presence of inhibitors for 15 min at room temperature. […] The TDP1 inhibition IC50 values were calculated based on gel images of the cleavage product (N14P, 5’-Cy5-[…]-p-3’) (Fig. 3A and Table S2).
The inhibition of TDP1 and TDP2 were conducted according to gel-based methods as previously described[21]–[24],[45]. Briefly, 1 nM of the DNA substrate (N14Y, 5´Cy5-[…]-pY-3´) was incubated with 40 pM full-length recombinant TDP1 or TDP1 (148–608) in the absence or presence of inhibitors for 15 min at room temperature in TDP1 reaction buffer (50 mM Tris-HCl, pH 7.5, 80 mM KCl, 2 mM EDTA, 1 mM DTT, 40 µg/mL BSA and 0.01% Tween 20). The inhibition of TDP2 was also conducted by using similar conditions. […] The reactions of both TDP1 and TDP2 were stopped by adding an equal volume of gel loading buffer (99.5% (v/v) formamide, 5 mM EDTA). The samples were then subjected to a 20% denaturing PAGE gel followed by gel scanning using a Typhoon FLA 9500 scanner (GE Healthcare). The IC50 values of the TDP1 inhibitors were calculated by comparing the percentage of the cleavage product (N14P, 5´Cy5-[…]-p-3´) produced to that in the DMSO control. The IC50 values of the TDP2 inhibitors were calculated by comparing the percentage of the cleavage product (PN18, 5’-p-[…]-Cy5-3’) produced to that in the DMSO control.

SMILES	IC50
Nc1nc(/C(=C/CC(=O)O)C(=O)N[C@@H]2C(=O)N3C(C(=O)O)=CCS[C@H]23)cs1 [LD10, Ceftibuten dihydrate]	> 1000 µM
CO/N=C(\C(=O)N[C@@H]1C(=O)N2C(C(=O)O)=C(CSc3nnnn3C)CS[C@H]12)c1csc(N)n1 [LG4, Cefmenoxime hydrochloride]	> 1000 µM
CC(=O)OCC1=C(C(=O)O)N2C(=O)[C@@H](NC(=O)CSc3ccncc3)[C@H]2SC1 [LC8, Cephapirin Sodium]	496 µM
CC/C=C(\C(=O)N[C@@H]1C(=O)N2C(C(=O)OCOC(=O)C(C)(C)C)=C(COC(N)=O)CS[C@H]12)c1csc(N)n1 [LD6, Cefcapene Pivoxil Hydrochloride]	> 1000 µM
CO[C@@]1(NC(=O)C2SC(=C(C(N)=O)C(=O)O)S2)C(=O)N2C(C(=O)O)=C(CSc3nnnn3C)CS[C@@H]21 (some centres unmarked) [LB4, Cefotetan]	379 µM
Cc1cc(O)c(C(=O)N[C@@H](C(=O)N[C@@H]2C(=O)N3C(C(=O)O)=C(CSc4nnnn4C)CS[C@H]23)c2ccc(O)cc2)cn1 [LH1, Cefpiramide acid]	> 1000 µM
CO/N=C(\C(=O)N[C@@H]1C(=O)N2C(C(=O)OCOC(=O)C(C)(C)C)=C(/C=C\c3scnc3C)CS[C@H]12)c1csc(N)n1 [LF3, Cefditoren pivoxil]	> 1000 µM
C[n+]1ccn(C[C@@]2(C)[C@H](C(=O)[O-])N3C(=O)C[C@H]3S2(=O)=O)n1 [LF2, AAI101]	> 1000 µM
Nc1nc2c(c(=O)[nH]1)N=C(CNc1ccc(C(=O)N[C@@H](CCC(=O)O)C(=O)O)cc1)CN2 [compound 10, dihydrofolic acid dihydrate]	60.1 µM and 60 µM
C[C@@H](O)[C@H]1C(=O)N2C(C(=O)O)=C(S[C@@H]3CN[C@H](CNS(N)(=O)=O)C3)[C@H](C)[C@H]12 [LE10, Doripenem Hydrate]	> 1000 µM
COCC1=C(C(=O)OC(C)OC(=O)OC(C)C)N2C(=O)[C@@H](NC(=O)/C(=N\OC)c3csc(N)n3)[C@H]2SC1 (some centres unmarked) [LD2, Cefpodoxime proxetil]	> 1000 µM
Cc1onc(-c2ccccc2)c1C(=O)NC1C(=O)N2[C@@H]1SC(C)(C)[C@@H]2C(=O)O (some centres unmarked) [LH8, Oxacillin sodium]	> 1000 µM
CC1=C(C(=O)O)N2C(=O)[C@@H](NC(=O)[C@H](N)c3ccc(O)cc3)[C@H]2SC1 [LE1, Cefadroxil]	> 1000 µM
CCOc1ccc2ccccc2c1C(=O)N[C@@H]1C(=O)N2[C@@H]1SC(C)(C)[C@@H]2C(=O)O [LF5, nafcillin sodium]	> 1000 µM
N[C@@H](C(=O)N[C@@H]1C(=O)N2C(C(=O)O)=C(Cl)CS[C@H]12)c1ccccc1 [LE11, Cefaclor monohydrate]	> 1000 µM
C[C@@H](O)[C@H]1C(=O)N2C(C(=O)O)=C(S[C@@H]3CN[C@H](CNS(N)(=O)=O)C3)[C@H](C)[C@H]12 [LE5, Doripenem]	148 µM
CC1(C)S[C@@H]2[C@H](NC(=O)C(c3ccccc3)S(=O)(=O)O)C(=O)N2[C@H]1C(=O)O (some centres unmarked) [LA6, Sulbenicillin Sodium]	> 1000 µM
CO/N=C(\C(=O)N[C@@H]1C(=O)N2C(C(=O)O)=C(CSc3nc(=O)c(=O)[nH]n3C)CS[C@H]12)c1csc(N)n1 [LG2, Ceftriaxone sodium]	> 1000 µM
CC1(C)S[C@@H]2[C@H](NC(=O)Cc3ccccc3)C(=O)N2[C@H]1C(=O)O [LH9, Penicillin G sodium salt]	> 1000 µM
C/C=C/C1=C(C(=O)O)N2C(=O)[C@@H](NC(=O)[C@H](N)c3ccc(O)cc3)[C@H]2SC1 [LG8, Cefprozil hydrate]	> 1000 µM
CO/N=C(\C(=O)N[C@@H]1C(=O)N2C(C(=O)O)=C(Cn3ccc(=N)n3CCO)CS[C@H]12)c1csc(N)n1 [LB7, Cefoselis Sulfate]	> 1000 µM
CO/N=C(\C(=O)N[C@@H]1C(=O)N2C(C(=O)O)=C(CSC(=O)c3ccco3)CS[C@H]12)c1csc(N)n1 [LG1, Sodium ceftiofur]	> 1000 µM
CN(C)CCn1nnnc1SCC1=C(C(=O)O)N2C(=O)[C@@H](NC(=O)Cc3csc(N)n3)[C@H]2SC1 [LE8, Cefotiam hydrochloride]	> 1000 µM
CC1(C)S[C@@H]2[C@H](/N=C/N3CCCCCC3)C(=O)N2[C@H]1C(=O)O [LE6, Mecillinam]	> 1000 µM

SMILES	IC50
C[C@@H](O)[C@H]1C(=O)N2C(C(=O)O)=C(S[C@@H]3CN[C@H](C(=O)Nc4cccc(C(=O)O)c4)C3)[C@H](C)[C@H]12 [LD5, Ertapenem sodium]	> 1000 µM
Cc1onc(-c2c(Cl)cccc2Cl)c1C(=O)N[C@@H]1C(=O)N2[C@@H]1SC(C)(C)[C@@H]2C(=O)O [LH7, Dicloxacillin sodium monohydrate]	> 1000 µM
Cc1nnc(SCC2=C(C(=O)O)N3C(=O)[C@@H](NC(=O)Cn4cnnn4)[C@H]3SC2)s1 [LH10, Cefazolin sodium salt]	530 µM
CC1(C)S[C@@H]2[C@H](NC(=O)[C@H](N)c3ccccc3)C(=O)N2[C@H]1C(=O)OCOC(=O)[C@@H]1N2C(=O)C[C@H]2S(=O)(=O)C1(C)C [LE4, Sultamicillin Tosylate]	> 1000 µM
C[C@@H](O)[C@H]1C(=O)N2C(C(=O)O)=C([C@H]3CCCO3)S[C@H]12 [LC7, Faropenem sodium]	> 1000 µM
CC1(C)S[C@@H]2[C@H](NC(=O)[C@H](C(=O)O)c3ccsc3)C(=O)N2[C@H]1C(=O)O [LB5, Ticarcillin sodium]	> 1000 µM
CCN1CCN(C(=O)N[C@@H](C(=O)N[C@@H]2C(=O)N3[C@@H]2SC(C)(C)[C@@H]3C(=O)O)c2ccccc2)C(=O)C1=O [LG3, Piperacillin sodium salt]	> 1000 µM
CO/N=C(\C(=O)N[C@@H]1C(=O)N2C(C(=O)[O-])=C(C[n+]3cccc4c3CCCC4)CS[C@H]12)c1csc(N)n1 [LD11, Cefquinome sulfate]	> 1000 µM
CC1(C)S[C@@H]2[C@H](NC(=O)C(C(=O)O)c3ccccc3)C(=O)N2[C@H]1C(=O)O (some centres unmarked) [LG5, Carbenicillin disodium]	> 1000 µM
CO[C@@]1(NC(=O)C(C(=O)O)c2ccc(O)cc2)C(=O)N2C(C(=O)O)=C(CSc3nnnn3C)CO[C@@H]21 (some centres unmarked) [LC4, Latamoxef sodium]	179 µM and 180 µM
O=C(O)C1=C(CSc2nnnn2CS(=O)(=O)O)CS[C@@H]2[C@H](NC(=O)[C@H](O)c3ccccc3)C(=O)N12 [LF9, Cefonicid sodium]	> 1000 µM
CO/N=C(\C(=O)N[C@@H]1C(=O)N2C(C(=O)O)=C(COC(N)=O)CS[C@H]12)c1ccco1 [LF11, Cefuroxime sodium]	111 µM
Cc1nnc(SCC2=C(C(=O)O)N3C(=O)[C@@H](NC(=O)Cn4cnnn4)[C@H]3SC2)s1 [LA3, Cefazolin]	> 1000 µM
C[C@@H](O)[C@H]1C(=O)N2C(C(=O)O)=C(S[C@@H]3CN[C@H](C(=O)N(C)C)C3)[C@H](C)[C@H]12 [LF1, Meropenem]	> 1000 µM
Cc1nnc(SCC2=C(C(=O)O)N3C(=O)[C@@H](NC(=O)Cn4cc(Cl)c(=O)c(Cl)c4)[C@H]3SC2)s1 [LA8, Cefazedone]	> 1000 µM
CCN1CCN(C(=O)N[C@@H](C(=O)N[C@@H]2C(=O)N3C(C(=O)O)=C(CSc4nnnn4C)CS[C@H]23)c2ccc(O)cc2)C(=O)C1=O [LB8, Cefoperazone]	> 1000 µM
NCc1ccccc1CC(=O)N[C@@H]1C(=O)N2C(C(=O)O)=C(CSc3nnnn3CC(=O)O)CS[C@H]12 [LC10, Ceforanide]	378 µM
C[C@H]1[C@H](NC(=O)/C(=N\OC(C)(C)C(=O)O)c2csc(N)n2)C(=O)N1S(=O)(=O)O [LH3, Aztreonam]	620 ± 61 µM
CC1=C(C(=O)O)N2C(=O)C(N)C2SC1 (centres unmarked) [LB12, Cefalexine EP IMpurity B]	> 1000 µM
CO/N=C(\C(=O)N[C@@H]1C(=O)N2C(C(=O)O)=C(CSc3nc(C)c(CC(=O)O)s3)CS[C@H]12)c1csc(N)n1 [LA5, Cefodizime Sodium]	> 1000 µM
CO/N=C(\C(=O)N[C@@H]1C(=O)N2C(C(=O)[O-])=C(C[n+]3cccc4c3CCC4)CS[C@H]12)c1csc(N)n1 [LD3, Cefpirome sulfate]	> 1000 µM
CCO/N=C(\C(=O)N[C@@H]1C(=O)N2C(C(=O)[O-])=C(Sc3nc(-c4cc[n+](C)cc4)cs3)CS[C@H]12)c1nsc(NP(=O)(O)O)n1 [LA11, Ceftaroline fosamil]	> 1000 µM
Cn1nnnc1SCC1=C(C(=O)O)N2C(=O)[C@@H](NC(=O)[C@H](OC=O)c3ccccc3)[C@H]2SC1 [LD4, Cefamandole nafate]	> 1000 µM

Same assay, conditions: read-out: TDP1 IC50

SMILES	IC50
CC1(C)[C@H](C(=O)O)N2C(=O)C[C@H]2S1(=O)=O [LE7, Sulbactam]	595 µM
CC(=O)OCC1=C(C(=O)O)N2C(=O)[C@@H](NC(=O)CSc3ccncc3)[C@H]2SC1 [LA7, Cephapirin Benzathine]	> 1000 µM
CO[C@@]1(NC(=O)CSC[C@@H](N)C(=O)O)C(=O)N2C(C(=O)O)=C(CSc3nnnn3C)CS[C@@H]21 [LE3, Cefminox Sodium]	> 1000 µM
